One assay has as its target T1, EZH1 (Homo sapiens, UniProt Q92800).
T1 sequence (Q92800 1-747): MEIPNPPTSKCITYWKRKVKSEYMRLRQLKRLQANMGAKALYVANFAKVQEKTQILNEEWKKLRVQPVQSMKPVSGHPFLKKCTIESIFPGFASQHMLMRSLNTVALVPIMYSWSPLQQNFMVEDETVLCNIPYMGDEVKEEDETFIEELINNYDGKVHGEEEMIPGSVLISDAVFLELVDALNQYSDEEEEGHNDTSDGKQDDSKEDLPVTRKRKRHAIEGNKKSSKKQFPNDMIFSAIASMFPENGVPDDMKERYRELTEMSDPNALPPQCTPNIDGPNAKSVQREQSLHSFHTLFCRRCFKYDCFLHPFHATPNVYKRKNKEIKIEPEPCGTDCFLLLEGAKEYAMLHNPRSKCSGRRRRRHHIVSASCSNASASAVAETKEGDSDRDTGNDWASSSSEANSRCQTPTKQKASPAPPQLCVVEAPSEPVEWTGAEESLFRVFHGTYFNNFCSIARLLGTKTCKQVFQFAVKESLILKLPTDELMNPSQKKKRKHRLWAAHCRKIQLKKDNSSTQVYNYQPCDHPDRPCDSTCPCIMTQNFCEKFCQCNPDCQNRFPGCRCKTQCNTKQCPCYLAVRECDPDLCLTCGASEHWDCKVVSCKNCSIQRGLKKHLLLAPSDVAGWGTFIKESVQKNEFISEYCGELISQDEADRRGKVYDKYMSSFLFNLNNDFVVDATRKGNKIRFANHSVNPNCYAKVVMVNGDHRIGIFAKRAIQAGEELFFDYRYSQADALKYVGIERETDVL
Nature of the assay: biochemical inhibition assay with recombinant EZH1.

The next assay deals with EZH2 (Homo sapiens, UniProt Q15910). Description: biochemical inhibition assay with recombinant EZH2.

One may read the Ki as a measure of affinity in units of concentration, obtained from inhibition or displacement.

Sequence of EZH2 (Q15910 whole entry): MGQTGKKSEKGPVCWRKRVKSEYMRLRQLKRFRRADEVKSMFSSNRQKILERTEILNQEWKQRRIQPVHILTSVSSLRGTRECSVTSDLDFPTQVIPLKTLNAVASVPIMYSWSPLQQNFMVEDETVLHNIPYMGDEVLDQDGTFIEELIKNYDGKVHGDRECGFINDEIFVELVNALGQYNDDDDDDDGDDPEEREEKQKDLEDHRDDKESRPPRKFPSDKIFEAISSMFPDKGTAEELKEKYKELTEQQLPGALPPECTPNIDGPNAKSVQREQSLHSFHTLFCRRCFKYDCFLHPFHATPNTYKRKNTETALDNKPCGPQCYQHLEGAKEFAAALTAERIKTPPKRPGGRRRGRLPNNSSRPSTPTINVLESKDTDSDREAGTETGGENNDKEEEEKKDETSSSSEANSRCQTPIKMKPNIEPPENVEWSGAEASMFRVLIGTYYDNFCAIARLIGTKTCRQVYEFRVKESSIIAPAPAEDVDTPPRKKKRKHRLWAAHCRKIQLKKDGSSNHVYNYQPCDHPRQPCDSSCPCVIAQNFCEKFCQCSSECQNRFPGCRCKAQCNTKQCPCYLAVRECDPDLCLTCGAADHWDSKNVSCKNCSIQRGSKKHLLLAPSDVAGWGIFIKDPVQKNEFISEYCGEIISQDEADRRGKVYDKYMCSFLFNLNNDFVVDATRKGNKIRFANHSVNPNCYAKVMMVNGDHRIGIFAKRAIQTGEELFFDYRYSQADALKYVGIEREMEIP

In the case of `CCCc1cc(C)[nH]c(=O)c1CNC(=O)c1cc(-c2ccc(N3CCN(C)CC3)nc2)nc2c1cnn2C(C)C` [JQ-EZ-05], the Ki on EZH1 was determined as 0.0265 µM; on EZH2, 0.0022 µM.

For the origin of these results see publication PMC6039096 (Science translational medicine, 2017).
